Experimental data published in patent US12516058B2, “Small-molecule compounds for controlling endosomal toll-like receptors and therapeutic agent for autoimmune diseases using same” (priority 2020, dated 2026).
“Also recorded” adds a separate entry of the source.

How the values were obtained:
Format in all cases: cell-based
TLR7 = target: T1, TLR7 (Mus musculus, UniProt P58681); test: TNF-α secretion ELISA after TLR7 agonist imiquimod (IMQ) in RAW 264.7 cells; details: for inhibitory activity against TLR7 activation (TNF-α secretion): SK01 and structural derivatives, inhibitor 1 h, then IMQ 4 h; for inhibitory activity against TLR7 (level of TNF-α secretion): SK21 to SK82 at 0.5 μM or 2 μM, Imiquimod 1 μg/ml
T1 construct: endogenous in cells; host or cells: RAW 264.7
T1 sequence (P58681 27-1050): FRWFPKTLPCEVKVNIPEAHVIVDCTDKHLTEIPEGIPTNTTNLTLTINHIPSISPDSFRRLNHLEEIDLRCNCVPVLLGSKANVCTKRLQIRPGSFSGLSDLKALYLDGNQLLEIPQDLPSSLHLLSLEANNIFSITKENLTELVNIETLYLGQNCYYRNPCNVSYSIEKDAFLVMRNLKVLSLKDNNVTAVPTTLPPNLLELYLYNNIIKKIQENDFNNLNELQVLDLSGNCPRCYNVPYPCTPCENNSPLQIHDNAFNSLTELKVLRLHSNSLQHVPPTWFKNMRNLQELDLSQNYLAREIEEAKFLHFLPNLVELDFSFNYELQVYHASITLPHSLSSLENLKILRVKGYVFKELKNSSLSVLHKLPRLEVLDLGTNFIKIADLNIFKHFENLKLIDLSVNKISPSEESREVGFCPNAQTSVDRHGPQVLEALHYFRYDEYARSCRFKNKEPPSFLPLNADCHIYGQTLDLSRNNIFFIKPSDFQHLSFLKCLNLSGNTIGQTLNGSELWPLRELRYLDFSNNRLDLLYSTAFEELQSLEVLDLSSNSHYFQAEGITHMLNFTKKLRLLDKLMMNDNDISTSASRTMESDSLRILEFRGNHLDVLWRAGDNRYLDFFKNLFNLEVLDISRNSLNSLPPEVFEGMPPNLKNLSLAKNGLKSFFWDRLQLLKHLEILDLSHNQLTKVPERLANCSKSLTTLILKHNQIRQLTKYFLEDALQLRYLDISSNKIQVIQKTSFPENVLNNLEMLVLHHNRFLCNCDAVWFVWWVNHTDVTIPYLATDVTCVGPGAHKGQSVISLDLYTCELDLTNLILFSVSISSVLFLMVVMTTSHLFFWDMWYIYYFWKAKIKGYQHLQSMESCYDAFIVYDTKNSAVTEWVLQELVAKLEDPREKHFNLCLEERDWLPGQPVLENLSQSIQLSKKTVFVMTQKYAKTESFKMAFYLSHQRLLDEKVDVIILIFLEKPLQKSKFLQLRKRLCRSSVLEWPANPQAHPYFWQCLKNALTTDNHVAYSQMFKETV
Description: (§1) In order to determine the inhibitory activities of the test-ligand, RAW 264.7 cells were pretreated with each candidate compound for 1 hour, then treated with Pam3CSK4 (synthetic triacyl lipopeptide; TLR1/2, Invitrogen), FSL-1 (synthetic diacyl lipoprotein, TLR2/6, 100 ng/ml), lipopolysaccharide (LPS, TLR4, Sigma Aldrich), imiquimod (IMQ, TLR7, Invitrogen), and ODN2395 (type C CpG repeat motif DNA oligo(5′-[…]-3), TLR9, Bioneer) ligand for 4 hours, and treated with poly I:C (I:C repeat motif double-stranded RNA, TLR3, Invitrogen) and TL8-506 (TLR8, Invitrogen) showing delayed reactivity for 24 hours. After activation of TLR, the supernatant was diluted in an appropriate ratio so as to measure within the standard dose range, transferred to a pre-coated 96-well assay plate, and then treated with mouse TNF-alpha secretion level in accordance with the manufacturer's instructions using a mouse-TNF-alpha ELISA-kit (Invitrogen).
In order to plot the concentration-dependent LC50 curves, treatment with the SK series ligands at different concentrations up to 200 μM (the highest concentration that could be treated within the level of 0.5% DMSO) was performed. Then, cell viability and toxicity response upon treatment with ligands were analyzed by MTT as described in Examples 1-3. Cell viability in each plot was normalized from negative control (100%; no treatment) to positive control (highest concentration of test-ligand), and LC50 was determined by non-linear regression (Graph Pad Prism 7.0). In order to plot the concentration-dependent IC50 curves, pre-treatment with the SK series ligands was performed at different concentrations up to 50 μM (twice the initial concentration). Cell responses mediated by TLR7 and TLR9 (levels of TNF-α secretion) were analyzed by ELISA as described in Examples 1-4. The cytokine level in each plot was normalized from negative control (non-treated) to positive control (treatment with ligand), and IC50 was determined by non-linear regression (Graph Pad Prism 7.0).
In order to select potential inhibitory molecules against TLR3/TLR7/TLR8/TLR9 activation, first, MTT (3-(4,5-dimethylthiazol-2-yl)-2,5-diphenyltetrazolium bromide) cell viability assay (FIG. 7) was performed upon treatment with a set of ligands from SK21 to SK82 at a concentration of 20 μM and the inhibitory activity thereof was evaluated by an ELISA assay to monitor the level of TNF-α secretion in RAW 264.7 cells. The experimental ligands from SK21 to SK82 were administered at 0.5 μM or 2 μM to the RAW 264.7 cells and stimulated with Imiquimod (TLR7, 1 μg/ml) and OND2395 (TLR9, 0.5 μM).

TLR5 = target: T2, TLR5 (Homo sapiens, UniProt O60602); test: TNF-α secretion ELISA after FLA-ST in differentiated THP-1 cells
T2 construct: endogenous in cells; host or cells: THP-1 (differentiated)
Description: In order to determine the inhibitory activity of the test-ligand against TLR5, differentiated THP-1 cells were pretreated with each compound for 1 hour and then treated with FLA-ST ([…] flagellar protein, TLR5, Invitrogen) for 4 hours. After activation of the TLRs, the supernatant was diluted and transferred to a pre-coated 96-well assay plate, and the level of human TNF-alpha secretion was measured in accordance with the manufacturer's instructions using the human TNF-alpha ELISA-kit (Invitrogen).
(§2) In order to determine the inhibitory activities of SK41, SK50, SK58 and SK64 on various TLR signaling pathways, RAW 264.7 cells were cultured along with each compound and then stimulated with different TLR agonists. The TLR agonists used herein were Pam3CSK4 (TLR1/2), FSL-1 (TLR2/6), LPS (TLR4) and FLA-ST (TLR5) as cell surface TLRs, and poly I:C (TLR3) and TL8-506 (TLR8) as endosomal TLRs.

TLR1/2 = target: T3, TLR1/2 (Mus musculus, UniProt Q9EPQ1+Q9QUN7); test: TNF-α secretion ELISA after Pam3CSK4 in RAW 264.7 cells
T3 construct: endogenous in cells; host or cells: RAW 264.7
Description: as §1, §2

T2 sequence (O60602 21-858): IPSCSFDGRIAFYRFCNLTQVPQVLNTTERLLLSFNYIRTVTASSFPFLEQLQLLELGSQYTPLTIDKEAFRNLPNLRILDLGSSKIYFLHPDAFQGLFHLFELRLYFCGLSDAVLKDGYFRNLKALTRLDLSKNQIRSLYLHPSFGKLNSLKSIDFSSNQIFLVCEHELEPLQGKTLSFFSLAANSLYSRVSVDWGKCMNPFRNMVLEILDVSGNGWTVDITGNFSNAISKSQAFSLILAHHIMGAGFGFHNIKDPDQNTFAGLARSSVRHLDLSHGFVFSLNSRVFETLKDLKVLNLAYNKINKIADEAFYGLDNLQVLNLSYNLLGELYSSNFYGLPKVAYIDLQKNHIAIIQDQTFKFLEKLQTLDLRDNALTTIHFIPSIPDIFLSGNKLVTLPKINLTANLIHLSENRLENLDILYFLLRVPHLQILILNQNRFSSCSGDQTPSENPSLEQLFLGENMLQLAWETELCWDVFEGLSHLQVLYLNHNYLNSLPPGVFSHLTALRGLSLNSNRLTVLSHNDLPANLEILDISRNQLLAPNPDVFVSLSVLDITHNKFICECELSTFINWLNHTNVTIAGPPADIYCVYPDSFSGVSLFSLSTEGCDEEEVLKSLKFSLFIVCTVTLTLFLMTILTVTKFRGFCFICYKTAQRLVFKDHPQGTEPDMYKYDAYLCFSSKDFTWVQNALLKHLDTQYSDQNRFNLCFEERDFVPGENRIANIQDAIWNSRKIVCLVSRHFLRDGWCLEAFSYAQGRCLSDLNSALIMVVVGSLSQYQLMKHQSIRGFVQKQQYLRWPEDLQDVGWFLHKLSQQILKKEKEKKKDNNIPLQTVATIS
T3 sequence (Q9EPQ1 26-795): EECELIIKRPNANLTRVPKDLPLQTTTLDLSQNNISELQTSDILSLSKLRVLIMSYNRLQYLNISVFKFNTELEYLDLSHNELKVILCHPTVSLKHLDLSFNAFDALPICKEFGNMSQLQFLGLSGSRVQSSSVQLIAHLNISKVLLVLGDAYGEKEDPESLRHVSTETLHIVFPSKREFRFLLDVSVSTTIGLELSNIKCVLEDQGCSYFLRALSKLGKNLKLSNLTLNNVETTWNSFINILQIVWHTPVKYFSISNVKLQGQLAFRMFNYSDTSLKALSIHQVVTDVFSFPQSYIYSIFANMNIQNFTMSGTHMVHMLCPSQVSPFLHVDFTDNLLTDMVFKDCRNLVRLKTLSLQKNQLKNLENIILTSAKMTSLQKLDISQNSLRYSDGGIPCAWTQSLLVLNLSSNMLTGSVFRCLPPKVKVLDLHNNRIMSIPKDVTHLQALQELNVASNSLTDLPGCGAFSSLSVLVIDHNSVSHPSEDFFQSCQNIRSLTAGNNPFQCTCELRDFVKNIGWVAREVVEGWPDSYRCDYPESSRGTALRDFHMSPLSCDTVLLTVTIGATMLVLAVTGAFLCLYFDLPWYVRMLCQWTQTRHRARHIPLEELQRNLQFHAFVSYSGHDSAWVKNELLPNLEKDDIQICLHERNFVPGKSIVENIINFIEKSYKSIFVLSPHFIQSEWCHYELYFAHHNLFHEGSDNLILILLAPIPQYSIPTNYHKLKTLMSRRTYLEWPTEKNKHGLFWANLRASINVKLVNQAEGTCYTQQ
T3 sequence (Q9QUN7 25-784): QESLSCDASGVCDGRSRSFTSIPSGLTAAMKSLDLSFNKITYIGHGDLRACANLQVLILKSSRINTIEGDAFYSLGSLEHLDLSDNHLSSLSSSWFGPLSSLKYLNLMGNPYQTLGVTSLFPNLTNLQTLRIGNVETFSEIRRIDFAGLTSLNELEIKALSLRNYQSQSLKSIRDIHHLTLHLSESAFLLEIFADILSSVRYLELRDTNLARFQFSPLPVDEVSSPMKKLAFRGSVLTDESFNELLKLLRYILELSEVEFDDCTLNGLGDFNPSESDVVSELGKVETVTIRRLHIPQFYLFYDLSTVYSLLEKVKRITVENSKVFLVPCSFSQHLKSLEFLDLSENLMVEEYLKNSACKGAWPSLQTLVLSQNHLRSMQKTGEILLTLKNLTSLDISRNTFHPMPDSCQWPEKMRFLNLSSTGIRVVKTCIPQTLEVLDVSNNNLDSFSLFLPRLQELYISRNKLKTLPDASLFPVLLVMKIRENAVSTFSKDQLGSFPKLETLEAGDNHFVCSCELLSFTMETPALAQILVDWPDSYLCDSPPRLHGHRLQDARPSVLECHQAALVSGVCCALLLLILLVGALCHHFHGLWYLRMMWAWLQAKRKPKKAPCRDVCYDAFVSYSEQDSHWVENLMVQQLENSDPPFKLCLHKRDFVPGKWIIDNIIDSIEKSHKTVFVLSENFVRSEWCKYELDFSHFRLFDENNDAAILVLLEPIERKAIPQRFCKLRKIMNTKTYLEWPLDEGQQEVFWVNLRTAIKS

SMILES | inhibitory activity against TLR7 activation (TNF-α secretion) (TLR7) | inhibitory activity against cell surface TLR5 (TNF-α secretion) (TLR5) | inhibitory activity against TLR7 (level of TNF-α secretion) (TLR7) | inhibitory activity against cell surface TLR1/2 (TNF-α secretion) (TLR1/2)
Cc1c(C)n(CCN(C)C)c2nc3c(c(N)c12)CCCCC3 [SK01, 1-(2-(dimethylamino)ethyl)-2,3-dimethyl-1,5,6,7,8,9-hexahydrocyclohepta[b]pyrrolo[3,2-e]pyridin-4-amine] | inhibitory ability for TLR7/TLR9 activation was verified; also recorded: specifically inhibit |  |  | 
Cc1c(C)n(CCCN(C)C)c2nc3c(c(N)c12)CCCCC3 [SK16, 1-(3-(dimethylamino)propyl)-2,3-dimethyl-1,5,6,7,8,9-hexahydrocyclohepta[b]pyrrolo[3,2-e]pyridin-4-amine] | potent inhibitor; also recorded: best inhibitory activity among the structural analogues of SK01; also recorded: specifically inhibit |  |  | 
Cc1cc2c(N)c3c(nc2n1CCCN(C)C)CCCCCC3 [SK41, 1-(3-(dimethylamino)propyl)-2-methyl-5,6,7,8,9,10-hexahydro-1H-cycloocta[b]pyrrolo[3,2-e]pyridin-4-amine] |  | did not exhibit a specific inhibitory activity; also recorded: no inhibitory activities | significant inhibitory activity; also recorded: significantly reduced | did not exhibit a specific inhibitory activity; also recorded: no inhibitory activities
COc1ccc2c(c1)c1c(N)c3c(nc1n2CCCN(C)C)CCCC3 [SK50, 6-(3-(dimethylamino)propyl)-9-methoxy-2,3,4,6-tetrahydro-1H-indolo[2,3-b]quinolin-11-amine] |  | did not exhibit a specific inhibitory activity; also recorded: no inhibitory activities | significant inhibitory activity; also recorded: significantly reduced | did not exhibit a specific inhibitory activity; also recorded: no inhibitory activities
Cc1ccc2c(c1)c1c(N)c3c(nc1n2CCCN(C)C)CCCC3 [SK58, 6-(3-(dimethylamino)propyl)-9-methyl-2,3,4,6-tetrahydro-1H-indolo[2,3-b]quinolin-11-amine] |  | did not exhibit a specific inhibitory activity; also recorded: no inhibitory activities | significant inhibitory activity; also recorded: significantly reduced | did not exhibit a specific inhibitory activity; also recorded: no inhibitory activities
COC(=O)c1ccc2c(c1)c1c(N)c3c(nc1n2CCCN(C)C)CCCC3 [SK64, Methyl 11-amino-6-(3-(dimethylamino)propyl)-2,3,4,6-tetrahydro-1H-indolo[2,3-b]quinolin-9-carboxylate] |  | did not exhibit a specific inhibitory activity; also recorded: no inhibitory activities | significant inhibitory activity; also recorded: significantly reduced | did not exhibit a specific inhibitory activity; also recorded: no inhibitory activities
